Test results from patent US20260102492A1, “Inhibition of Natural Killer Cell Cytoxocity” (University of Cincinnati, priority 2022, published 2026).
“Also recorded” adds a separate entry of the source.

Columns and labels:
[1] = test system: HNSCC patient-derived NK cells; assay: CXCL1 ELISA of NK cell culture supernatant; type: cell-based, Human
Experimental: Healthy donor and HNSCC NK cells were isolated from PBMCs and were treated for 24 hrs with vehicle or metformin. Supernatant was collected and analyzed by ELISA (analyzed by one way ANOVA. n=10).
HNSCC NK cells were isolated from PBMCs and treated with vehicle, 12 mM metformin, 50 ng CXCL1, 10 uM everolimus, or 10 uM BP-1-102 for 24 hr. The cells were washed and plated in fresh media. After 24 hrs, supernatant was collected for ELISA.

[2] = test system: HNSCC patient-derived NK cells; assay: NK cell perforin ELISA after co-culture with Cal27 cells; type: cell-based, Human
Experimental: For NK cell perforin assays, NK cells were treated with drug for 24 hrs, washed, and co-cultured with Cal27 cells for 4 hours. Supernatant was then collected, snap frozen in liquid nitrogen and stored at −80 until thawed for single use. For patient samples, undiluted plasma was added directly to ELISA. ELISA kit for perforin was obtained from ABCAM. ELISA was performed according to the manufacturer's protocol. Protocols included overnight coating of capture antibody diluted by lot number recommendation, 1 hr block with 400 uL 2% BSA in PBS, 2 hr sample incubation at room temperature of 100 uL sample (no dilution of sample was performed in these experiments), 2 hr […] diluted by lot number recommendation, 20 min Streptavidin incubation with 100 uL of 1:40 dilution of stock, and 15 min incubation with 100 uL included TMB ELISA reagent. 50 uL stop solution of in house 2N […] was added to stop reaction before reading at […] wavelength on plate reader. All plates included standard curve prepared per lot number recommendation with range of 35-2000 pg.
HNSCC patient-derived NK cells were treated with exogenous CXCL1 and an inhibitor of the CXCL1 receptor, CXCR2, or metformin. Patient-derived NK cells were exposed to Cal27 cells for 4 hours and supernatant was collected for perforin analysis by ELISA. Specifically, HNSCC NK cells derived from PBMCs were treated with 50 ng CXCL1, 12 mM metformin, or 10 nM CXCR2i (navarixin) and subjected to perforin against Cal27 target cells. Cells were analyzed by flow and analyzed by one way ANOVA. n=8.
Specifically, HNSCC NK cells were treated with vehicle, metformin, or 10 uM AMPK inhibitor (Dosomorphin) for 24 hrs, washed, and co-cultured with Cal27 cells for 4 hrs. Supernatant was collected for ELISA and analyzed by one way ANOVA. n=5.
HNSCC patient-derived NK cells were treated with vehicle, metformin, 10 uM mTOR inhibitor (Everolimus), or 10 uM mTOR activator (MHY1485) for 24 hrs, washed, and co-cultured with Cal27 cells for 4 hrs. Supernatant was collected for ELISA and analyzed by one way ANOVA. n=5.
As pSTAT1 can modulate perforin production, HNSCC patient-derived NK cells were treated with vehicle, […], or 10 uM of pSTAT1i inhibitor Fludarabine for 24 hrs, washed, and co-cultured with Cal27 cells for 4 hrs.
HNSCC NK cells were treated with vehicle, 12 mM metformin, 50 ng CXCL1, or 10 uM pSTAT3 inhibitor BP-1012 and co-cultured with Cal27 cells for 4 hrs. Supernatant was collected for ELISA and analyzed by one way ANOVA. n=5.

pSTAT1 = assay: Western blot of HNSCC NK cell lysates, pSTAT1; type: cell-based, Human; details: metformin or 50 ng CXCL1, 24 hrs, FIG. 3A/3B
Experimental: NK92, Cal27, UMSCC47 and HN5 cells were cultured with drug as described. Cells were collected in RIPA (0.05% sodium deoxycholate, […], 0.1% SDS, 1% NP-40) and protein content was analyzed by Pierce BCA kit (Thermo 23225). 50 ug of protein was diluted in 1×loading buffer (SDS, bromophenol blue, 47% glycerol, Tris 0.5M pH 6.8, 0.2 mM DTT-G) and heated to 90° C. for 3 minutes. Prepared lysate was loaded into gradient gels (Biorad 4561093) and run at 85V for 1.5 hour in Biorad casing with a Biorad powerpack in 1×running buffer (Tris, Glycine, SDS). Gels were transferred on nitrocellulose and run at 100V on bench for 1 hour in 1×transfer buffer (Tris, Glycine). […] Images were analyzed in Image Studio Lite V 5.2.
To determine what those pathways could be, pathways known to be affected by both metformin and CXCL1 were investigated. pSTAT3 and mTOR are known to be increased by activation of the CXCR2 receptor, and mTOR activation can inhibit pSTAT1 expression. […] Therefore, HNSCC patient-derived NK cells treated with metformin, CXCL1, or CXCR2i (navaxarin) were collected and analyzed by western blot analysis. Head and neck squamous cell carcinoma (HNSCC) natural killer (NK) cells were treated with metformin, 50 ng CXCL1, or 10 uM CXCR2i (navarixin) for 24 hrs and collected for lysates analyzed by western blot analysis (FIG. 3A).

pSTAT3 = assay: Western blot of HNSCC NK cell lysates, pSTAT3; type: cell-based, Human; details: metformin or 50 ng CXCL1, 24 hrs; western blot, FIG. 3A/3B
Experimental: NK92, Cal27, UMSCC47 and HN5 cells were cultured with drug as described. Cells were collected in RIPA (0.05% sodium deoxycholate, […], 0.1% SDS, 1% NP-40) and protein content was analyzed by Pierce BCA kit (Thermo 23225). 50 ug of protein was diluted in 1×loading buffer (SDS, bromophenol blue, 47% glycerol, Tris 0.5M pH 6.8, 0.2 mM DTT-G) and heated to 90° C. for 3 minutes. Prepared lysate was loaded into gradient gels (Biorad 4561093) and run at 85V for 1.5 hour in Biorad casing with a Biorad powerpack in 1×running buffer (Tris, Glycine, SDS). Gels were transferred on nitrocellulose and run at 100V on bench for 1 hour in 1×transfer buffer (Tris, Glycine). Membranes were blocked in 5% BSA in TBS for 1 hr, washed, and incubated in primary diluted in 2% BSA in TBS overnight. Membranes were washed and incubated in Licor secondary (Licor 926-32211 and 925-68070) in 5% BSA in TBS for 1 hr. Membranes were washed and imaged on a Licor Odyssey Clx. Images were analyzed in Image Studio Lite V 5.2.
To determine what those pathways could be, pathways known to be affected by both metformin and CXCL1 were investigated. pSTAT3 and mTOR are known to be increased by activation of the CXCR2 receptor, and mTOR activation can inhibit pSTAT1 expression. Metformin is also hypothesized to inhibit pSTAT3 and mTOR in NK cells. Therefore, HNSCC patient-derived NK cells treated with metformin, CXCL1, or CXCR2i (navaxarin) were collected and analyzed by western blot analysis. Head and neck squamous cell carcinoma (HNSCC) natural killer (NK) cells were treated with metformin, 50 ng CXCL1, or 10 uM CXCR2i (navarixin) for 24 hrs and collected for lysates analyzed by western blot analysis (FIG. 3A).

CXCL1 = assay: Patient plasma CXCL1 ELISA, trial NCT04414540 (pembrolizumab and metformin); type: in vivo, Human
HNC NK cells = assay: RNA-seq of metformin treated HNSCC patient-derived NK cells; type: cell-based, Human; details: 12 mM metformin 24 hrs
Experimental: HNC NK cells were isolated as above and were treated with vehicle or 12 mM metformin for 24 hrs. Cells were washed, suspended in CyroStor, and frozen. Samples were sent to Genewiz/Azenta for standard RNA-seq profiling. Sequence reads were aligned to the current reference […] genome (GRCh38) using the STAR aligner (43,44) and the reads aligned to each known gene were counted based on the latest GENCODE definitions of gene features.

[3] = Peripheral blood cell populations and serum cytokines of HNSCC patients after metformin treatment; type: in vivo, Human
Experimental: An Unpaired 2-tailed T Test With Welch's correction was used for analysis between flow cytometry in controls versus HNSCC patients. A 2-tailed Student's t test was used to compare differences between HNSCC patients before and after treatment in flow cytometry and cytokine experiments. Differences in immune cell populations between three groups were compared by one-way ANOVA with specific post-hoc contrasts. NKCA data were compared using a paired t test. Statistical analysis was performed in GraphPad Prism (V10). Differences between groups were considered statistically significant when P<0.05.

[4] = patient serum cytokine profile, after metformin
[5] = patients, after metformin treatment

In the case of CN(C)C(=N)N=C(N)N [metformin, Metformin], the CXCL1 supernatant levels ([1]; HNSCC patient-derived NK cells treated 24 hrs, n=10, FIG. 1) is reported as “inhibits CXCL1 release; also recorded: significantly reduced CXCL1 supernatant levels”, the CXCL1 secretion ([1]; single agent (12 mM metformin, 10 uM everolimus or 10 uM BP-1-102) 24 hr, fresh media 24 hrs, n=5, FIG. 8) is reported as “reduces CXCL1” and the perforin ([2]; 12 mM Metformin in pSTAT1-inhibited (10 uM Fludarabine) NK cells, Cal27 co-culture 4 hrs, FIG. 6) is reported as “rescued to baseline”. The perforin production ([2]; 12 mM metformin or 50 ng CXCL1, Cal27 target cells 4 hours, n=8, FIG. 2) was “increased perforin”, the pSTAT1 (pSTAT1) was “increases pSTAT1; also recorded: increase in pSTAT1” and the pSTAT3 (pSTAT3) was “decreases pSTAT3; also recorded: reduction of pSTAT3”. The “circulating CXCL1” value (CXCL1; post-metformin and pembrolizumab combination (week 4), n=5) was “decrease was not retained”, the “circulating CXCL1” value (CXCL1; post-metformin only vs pre-treatment, n=5, FIG. 9) was “decreased” and the “circulating CXCL1” value (CXCL1; post-metformin only vs pre-treatment, n=5, FIG. 9, listed as Metformin) was “reduced circulating CXCL1”. For the same molecule, the “CXCL1 expression (RNA-seq)” value (HNC NK cells) was “significantly downregulated CXCL1”, the “expression of NKG2D” value ([3]; circulating NK and NKT cells, after metformin treatment) was “increasing expression of NKG2D back to levels seen in healthy controls” and the IL-2 [3, 4] was “increasing”. For the same molecule, the TNF-α [3, 4] was “increasing”, the TEM cells [3, 5] was “larger population” and the “circulating NK and NKT cell populations” value [3, 5] was “partially restored”.
